Measured values as given in patent US9247759B2, “Identification of human T2R receptors that respond to bitter compounds that elicit the bitter taste in compositions, and the use thereof in assays to identify compounds that inhibit (block) bitter taste in compositions and use thereof” (SENOMYX, INC., priority 2007, dated 2016).
Like-named read-outs stand apart in the source and are kept apart here.

Experiments:
hT2R3 = hT2R3 (Homo sapiens (Human), UniProt Q9NYW6); experiment: hT2R panel inhibition, transient HEK293 G16g44, agonist Chloroquine pH6.5 50 μM; assay type: cell-based; conditions: HEK293, compound at 25 μM; receptor activated to EC80 with the corresponding agonist; read-out: screening result against bitter receptor 3
Outline: (§1)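 Here, inhibition reflects how much the test compound lowers activation of a transiently expressed human bitter receptor stimulated at EC80. Twenty-two such receptors were tested separately.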

hT2R5 = hT2R5 (Homo sapiens (Human), UniProt Q9NYW4); experiment: hT2R panel inhibition, transient HEK293 G16g44, agonist Picoline 10 mM; assay type: cell-based; conditions: HEK293, compound at 25 μM; receptor activated to EC80 with the corresponding agonist; read-out: screening result against bitter receptor 5
Description: (§2) Specifically, in order to evaluate the inhibitory selectivity of the Compound C compound, this compound was tested against 22 human T2Rs which were deorphaned by Senomyx. These receptors and the bitter ligands that activate these human T2Rs are reported in earlier patent applications which are incorporated by reference herein. These 22 human T2Rs are hT2R1, 3, 4, 5, 7, 8, 9, 10, 13, 14, 16, 44, 51, 54, 55, 61, 63, 64, 65, 67, 71 and 75. The amino acid and nucleic acid sequences of all of these T2Rs may be found in these earlier patent applications. These human T2Rs were each individually transiently transfected into HEK293 cells that stably express the promiscuous G protein G16g44 and functional assays were effected using these receptors as disclosed in these same patent applications. […] The ligands were used at EC80 concentration levels. The list of bitter ligands utilized and the tested ligand concentrations are contained in Table 5 of this example.
(§3) Relating to the foregoing, FIG. 5 contains experimental results wherein Compound C was tested with different agonist compounds. The inhibition activity is represented by the reduction of receptor activity in the presence of Compound C. […] These 13 hT2Rs are hT2R3, 7, 10, 14, 16, 44, 51, 55, 61, 63, 64, 65, and 71.

hT2R10 = hT2R10 (Homo sapiens (Human), UniProt Q9NYW0); experiment: hT2R panel inhibition, transient HEK293 G16g44, agonist Strychnine 50 μM; assay type: cell-based; conditions: HEK293, read-out: screening result against bitter receptor 10, compound at 25 μM; receptor activated to EC80 with the corresponding agonist
Description: as §2, §3

hT2R14 = hT2R14 (Homo sapiens (Human), UniProt Q9NYV8); experiment: hT2R panel inhibition, transient HEK293 G16g44, agonist Aristolochic Acid 2 μM; assay type: cell-based; conditions: HEK293, compound at 25 μM
Outline: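 Each hT2R was transiently transfected into HEK293 cells stably expressing G16g44 and assayed functionally for inhibition of agonist response. Agonists were applied at EC80: andrographolide at 0.5 mM for hT2R8 and aristolochic acid at 2 μM for hT2R14.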

hT2R16 = hT2R16 (Homo sapiens (Human), UniProt Q9NYV7); experiment: hT2R panel inhibition, transient HEK293 G16g44, agonist Salicin 1 mM; assay type: cell-based; conditions: HEK293, compound at 25 μM
Description: as §2, §3

hT2R44 = experiment: hT2R panel inhibition, transient HEK293 G16g44, agonist Denatonium 0.5 μM; assay type: cell-based, human; conditions: compound at 25 μM; for screening result against bitter receptor 44: receptor activated to EC80 with the corresponding agonist
Outline: as §1

hT2R51 = hT2R51 (Homo sapiens (Human), UniProt P59533); experiment: hT2R panel inhibition, transient HEK293 G16g44, agonist Prop 2.5 μM; assay type: cell-based; conditions: HEK293, compound at 25 μM; receptor activated to EC80 with the corresponding agonist; read-out: screening result against bitter receptor 51
Description: as §2, §3

hT2R54 = experiment: hT2R panel inhibition, transient HEK293 G16g44, agonist Ranitidine 5 mM; assay type: cell-based, human; conditions: compound at 25 μM; for screening result against bitter receptor 54: receptor activated to EC80 with the corresponding agonist
Description: as §2, §3

hT2R55 = experiment: hT2R panel inhibition, transient HEK293 G16g44, agonist Cinchonine 150 μM; assay type: cell-based, human; conditions: compound at 25 μM; for screening result against bitter receptor 55: receptor activated to EC80 with the corresponding agonist
Outline: as §1

hT2R61 = hT2R61 (Homo sapiens (Human), UniProt P59537); experiment: hT2R panel inhibition, transient HEK293 G16g44, agonist Aristolochic Acid 25 nM; assay type: cell-based; conditions: HEK293, compound at 25 μM
Outline: as §1

hT2R63 = experiment: hT2R panel inhibition, transient HEK293 G16g44, agonist Caffeine 1 mM or Andrographolide 100 μM; assay type: cell-based, human; conditions: compound at 25 μM; for screening result against bitter receptor 63: receptor activated to EC80 with the corresponding agonist
Outline: as §1

hT2R64 = hT2R64 (Homo sapiens (Human), UniProt P59538); experiment: hT2R panel inhibition, transient HEK293 G16g44, agonist Aristolochic Acid 1 μM; assay type: cell-based; conditions: HEK293, compound at 25 μM
Outline: as §1

hT2R65 = experiment: hT2R panel inhibition, transient HEK293 G16g44, agonist Oleuropein 1 mM; assay type: cell-based, human; conditions: compound at 25 μM; receptor activated to EC80 with the corresponding agonist
Description: as §2, §3

hT2R67 = experiment: hT2R panel inhibition, transient HEK293 G16g44, agonist Andrographolide 5 μM; assay type: cell-based, human; conditions: compound at 25 μM; for screening result against bitter receptor 67: receptor activated to EC80 with the corresponding agonist
Description: as §2, §3

hT2R71 = hT2R71 (Homo sapiens (Human), UniProt P59536); experiment: hT2R panel inhibition, transient HEK293 G16g44, agonist Picric Acid 10 μM; assay type: cell-based; conditions: HEK293, compound at 25 μM
Outline: as §1

hT2R7 = hT2R7 (Homo sapiens (Human), UniProt Q9NYW3); experiment: hT2R panel inhibition, transient HEK293 G16g44, agonist Chloroquine pH6.5 10 mM; assay type: cell-based; conditions: HEK293, compound at 25 μM; receptor activated to EC80 with the corresponding agonist; read-out: screening result against bitter receptor 7
Description: as §2, §3

[1] = receptor activated to EC80 with the corresponding agonist, read-out: screening result against bitter receptor 14
[2] = receptor activated to EC80 with the corresponding agonist, read-out: screening result against bitter receptor 16
[3] = receptor activated to EC80 with the corresponding agonist, read-out: screening result against bitter receptor 61
[4] = receptor activated to EC80 with the corresponding agonist, read-out: screening result against bitter receptor 64
[5] = receptor activated to EC80 with the corresponding agonist, read-out: screening result against bitter receptor 71
[6] = receptor activated to EC80 with agonist

Sequence of hT2R14 (Q9NYV8 whole entry): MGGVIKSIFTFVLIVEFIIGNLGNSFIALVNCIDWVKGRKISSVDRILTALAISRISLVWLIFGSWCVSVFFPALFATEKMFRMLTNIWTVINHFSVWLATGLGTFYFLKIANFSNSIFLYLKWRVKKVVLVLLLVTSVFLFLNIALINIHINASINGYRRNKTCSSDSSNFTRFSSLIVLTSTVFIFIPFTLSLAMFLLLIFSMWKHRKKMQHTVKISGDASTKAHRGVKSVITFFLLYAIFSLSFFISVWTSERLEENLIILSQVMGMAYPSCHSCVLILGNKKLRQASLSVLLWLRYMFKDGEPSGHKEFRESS
Sequence of hT2R61 (P59537 whole entry): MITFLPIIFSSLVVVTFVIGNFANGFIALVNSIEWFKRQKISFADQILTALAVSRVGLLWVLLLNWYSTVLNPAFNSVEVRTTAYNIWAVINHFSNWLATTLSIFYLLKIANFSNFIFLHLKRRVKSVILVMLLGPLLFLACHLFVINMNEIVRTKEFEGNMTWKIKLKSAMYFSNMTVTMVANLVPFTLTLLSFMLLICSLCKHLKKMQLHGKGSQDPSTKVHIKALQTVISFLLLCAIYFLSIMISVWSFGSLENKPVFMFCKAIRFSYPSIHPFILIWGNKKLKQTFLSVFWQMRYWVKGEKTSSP
Sequence of hT2R10 (Q9NYW0 whole entry): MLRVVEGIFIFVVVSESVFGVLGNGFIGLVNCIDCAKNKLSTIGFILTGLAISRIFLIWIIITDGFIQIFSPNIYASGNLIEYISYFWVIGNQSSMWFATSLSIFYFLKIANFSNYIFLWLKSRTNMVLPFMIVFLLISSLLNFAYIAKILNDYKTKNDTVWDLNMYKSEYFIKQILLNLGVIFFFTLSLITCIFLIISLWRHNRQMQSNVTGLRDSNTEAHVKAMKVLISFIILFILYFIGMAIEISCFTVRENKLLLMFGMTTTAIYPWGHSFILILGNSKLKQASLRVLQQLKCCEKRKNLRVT
Sequence of hT2R64 (P59538 whole entry): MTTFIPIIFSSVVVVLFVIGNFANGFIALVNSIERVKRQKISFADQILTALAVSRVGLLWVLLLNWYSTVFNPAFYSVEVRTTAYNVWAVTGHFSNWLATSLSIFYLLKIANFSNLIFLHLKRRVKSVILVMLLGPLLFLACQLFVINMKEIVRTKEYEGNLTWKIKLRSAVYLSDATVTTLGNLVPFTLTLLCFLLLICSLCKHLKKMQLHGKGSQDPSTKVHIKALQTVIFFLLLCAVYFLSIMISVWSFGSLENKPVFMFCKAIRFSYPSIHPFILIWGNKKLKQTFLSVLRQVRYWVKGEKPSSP
Sequence of hT2R5 (Q9NYW4 whole entry): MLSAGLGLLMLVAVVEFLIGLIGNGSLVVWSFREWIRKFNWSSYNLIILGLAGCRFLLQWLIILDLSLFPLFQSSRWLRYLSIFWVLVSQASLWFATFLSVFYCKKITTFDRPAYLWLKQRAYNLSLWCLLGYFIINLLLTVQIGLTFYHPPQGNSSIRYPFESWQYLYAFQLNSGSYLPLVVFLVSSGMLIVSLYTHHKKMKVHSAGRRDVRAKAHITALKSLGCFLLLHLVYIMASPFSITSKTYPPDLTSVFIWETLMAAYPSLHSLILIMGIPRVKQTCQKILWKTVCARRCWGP
Sequence of hT2R3 (Q9NYW6 whole entry): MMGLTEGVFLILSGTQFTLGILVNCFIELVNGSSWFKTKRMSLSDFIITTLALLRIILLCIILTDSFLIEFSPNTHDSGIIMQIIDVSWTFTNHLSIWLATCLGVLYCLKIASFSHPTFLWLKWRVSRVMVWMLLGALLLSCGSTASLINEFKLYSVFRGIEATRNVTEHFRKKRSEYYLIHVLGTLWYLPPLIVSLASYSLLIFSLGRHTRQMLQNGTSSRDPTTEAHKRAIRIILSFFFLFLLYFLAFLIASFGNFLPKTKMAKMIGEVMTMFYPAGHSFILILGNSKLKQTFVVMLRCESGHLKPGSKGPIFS
Sequence of hT2R16 (Q9NYV7 whole entry): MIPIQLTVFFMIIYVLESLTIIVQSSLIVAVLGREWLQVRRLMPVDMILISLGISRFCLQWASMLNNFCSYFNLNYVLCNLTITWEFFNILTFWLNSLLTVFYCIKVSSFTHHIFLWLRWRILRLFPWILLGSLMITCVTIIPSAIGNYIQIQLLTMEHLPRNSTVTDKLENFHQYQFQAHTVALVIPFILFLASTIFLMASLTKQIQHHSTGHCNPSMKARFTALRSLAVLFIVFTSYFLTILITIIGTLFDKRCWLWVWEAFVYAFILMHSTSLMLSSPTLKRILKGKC
Sequence of hT2R71 (P59536 whole entry): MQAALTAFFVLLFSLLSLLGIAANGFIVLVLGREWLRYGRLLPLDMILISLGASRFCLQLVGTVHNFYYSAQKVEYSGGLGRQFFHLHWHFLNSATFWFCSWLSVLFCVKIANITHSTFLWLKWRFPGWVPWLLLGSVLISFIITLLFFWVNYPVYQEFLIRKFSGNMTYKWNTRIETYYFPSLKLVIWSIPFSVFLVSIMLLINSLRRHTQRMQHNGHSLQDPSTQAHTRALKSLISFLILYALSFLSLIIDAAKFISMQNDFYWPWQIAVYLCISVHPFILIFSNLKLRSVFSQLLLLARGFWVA
Sequence of hT2R7 (Q9NYW3 whole entry): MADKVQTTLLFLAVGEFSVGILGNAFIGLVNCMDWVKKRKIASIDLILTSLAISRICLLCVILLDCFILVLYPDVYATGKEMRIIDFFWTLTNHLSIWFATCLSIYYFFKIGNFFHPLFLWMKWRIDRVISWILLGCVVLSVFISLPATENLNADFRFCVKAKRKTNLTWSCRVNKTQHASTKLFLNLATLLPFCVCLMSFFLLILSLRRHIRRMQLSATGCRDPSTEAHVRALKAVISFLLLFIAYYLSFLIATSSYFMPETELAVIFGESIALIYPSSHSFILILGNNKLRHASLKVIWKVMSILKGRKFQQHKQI
Sequence of hT2R51 (P59533 whole entry): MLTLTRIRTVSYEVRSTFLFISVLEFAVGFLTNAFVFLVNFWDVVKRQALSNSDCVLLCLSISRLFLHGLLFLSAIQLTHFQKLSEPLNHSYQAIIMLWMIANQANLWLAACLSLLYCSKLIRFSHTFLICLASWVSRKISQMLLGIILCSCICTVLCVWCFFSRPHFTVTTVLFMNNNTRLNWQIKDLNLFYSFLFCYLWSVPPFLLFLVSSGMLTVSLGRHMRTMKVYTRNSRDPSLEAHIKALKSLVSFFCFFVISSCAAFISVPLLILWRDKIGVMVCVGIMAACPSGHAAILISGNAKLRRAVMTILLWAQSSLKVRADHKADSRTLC

## O=C(O)c1ccc(S(=O)(=O)N(Cc2ccccc2)Cc2cccc(F)c2)cc1 [Example 5-79, 4-(N-benzyl-N-(3-fluorobenzyl)sulfamoyl)benzoic acid]
hT2R3
  inhibition at 25 µM: 40 to 60%
hT2R5
  inhibition at 25 µM: 20 to 40%
hT2R10
  inhibition at 25 µM: 20 to 40%
hT2R14; [1]
  inhibition at 25 µM: > 80%
hT2R16; [2]
  inhibition at 25 µM: 20 to 40%
hT2R44
  screening result against bitter receptor 44: ++ (40% to 60% inhibition = ++)
hT2R51
  inhibition at 25 µM: > 80%
hT2R54
  screening result against bitter receptor 54: + (20% to 40% inhibition = +)
hT2R55
  screening result against bitter receptor 55: +++ (60% to 80% inhibition = +++)
hT2R61; [3]
  inhibition at 25 µM: > 80%
hT2R63
  screening result against bitter receptor 63: ++++ (80% or greater inhibition = ++++)
hT2R64; [4]
  inhibition at 25 µM: 60 to 80%
hT2R65
  screening result against bitter receptor 65: ++ (40% to 60% inhibition = ++)
hT2R67
  screening result against bitter receptor 67: + (20% to 40% inhibition = +)
hT2R71; [5]
  inhibition at 25 µM: 60 to 80%

## N#Cc1ccc(CN(Cc2ccccc2)S(=O)(=O)c2ccc(C(=O)O)cc2)cc1 [Example 5-91, 4-(N-benzyl-N-(4-cyanobenzyl)sulfamoyl)benzoic acid]
hT2R3
  inhibition at 25 µM: 60 to 80%
hT2R5
  inhibition at 25 µM: 20 to 40%
hT2R10
  inhibition at 25 µM: 40 to 60%
hT2R14; [1]
  inhibition at 25 µM: > 80%
hT2R16; [2]
  inhibition at 25 µM: 20 to 40%
hT2R44
  screening result against bitter receptor 44: +++ (60% to 80% inhibition = +++)
hT2R54
  screening result against bitter receptor 54: + (20% to 40% inhibition = +)
hT2R55
  screening result against bitter receptor 55: ++++ (80% or greater inhibition = ++++)
hT2R61; [3]
  inhibition at 25 µM: > 80%
hT2R63
  screening result against bitter receptor 63: ++++ (80% or greater inhibition = ++++)
hT2R64; [4]
  inhibition at 25 µM: > 80%
hT2R67
  screening result against bitter receptor 67: + (20% to 40% inhibition = +)
hT2R71; [5]
  inhibition at 25 µM: 60 to 80%

## O=C(O)c1ccc(CN(Cc2ccccc2)S(=O)(=O)c2ccc(C(=O)O)cc2)cc1 [Example 5-48, 4-((N-benzyl-4-carboxyphenylsulfonamido)methyl)benzoic acid]
hT2R3
  inhibition at 25 µM: 40 to 60%
hT2R5
  inhibition at 25 µM: 20 to 40%
hT2R10
  inhibition at 25 µM: 60 to 80%
hT2R14; [1]
  inhibition at 25 µM: > 80%
hT2R16; [2]
  inhibition at 25 µM: 20 to 40%
hT2R44
  screening result against bitter receptor 44: +++ (60% to 80% inhibition = +++)
hT2R54
  screening result against bitter receptor 54: ++ (40% to 60% inhibition = ++)
hT2R55
  screening result against bitter receptor 55: ++++ (80% or greater inhibition = ++++)
hT2R61; [3]
  inhibition at 25 µM: > 80%
hT2R64; [4]
  inhibition at 25 µM: 60 to 80%
hT2R65
  screening result against bitter receptor 65: ++ (40% to 60% inhibition = ++)
hT2R67
  screening result against bitter receptor 67: + (20% to 40% inhibition = +)
hT2R71; [5]
  inhibition at 25 µM: 60 to 80%

## COc1ccc(CN(Cc2ccc(F)c(F)c2)S(=O)(=O)c2ccc(C(=O)O)cc2)cc1 [Example 5-36, 4-(N-(3,4-difluorobenzyl)-N-(4-methoxybenzyl)sulfamoyl)benzoic acid]
hT2R3
  inhibition at 25 µM: 40 to 60%
hT2R7
  inhibition at 25 µM: 20 to 40%
hT2R10
  inhibition at 25 µM: 20 to 40%
hT2R14; [1]
  inhibition at 25 µM: > 80%
hT2R16; [2]
  inhibition at 25 µM: 20 to 40%
hT2R44
  screening result against bitter receptor 44: ++ (40% to 60% inhibition = ++)
hT2R54
  screening result against bitter receptor 54: + (20% to 40% inhibition = +)
hT2R55
  screening result against bitter receptor 55: ++++ (80% or greater inhibition = ++++)
hT2R61; [3]
  inhibition at 25 µM: > 80%
hT2R63
  screening result against bitter receptor 63: +++ (60% to 80% inhibition = +++)
hT2R64; [4]
  inhibition at 25 µM: > 80%
hT2R65
  screening result against bitter receptor 65: ++ (40% to 60% inhibition = ++)
hT2R71; [5]
  inhibition at 25 µM: 60 to 80%

## COc1ccc2c(c1)-c1ccccc1CN(S(=O)(=O)c1ccc(C(=O)O)cc1)C2 [Example 5-106, 4-(2-methoxy-5H-dibenzo[c,e]azepin-6(7H)-ylsulfonyl)benzoic acid]
hT2R14; receptor activated to EC80 with agonist, read-out: inhibition of bitter receptor 14
  inhibition at 25 µM: > 80%
hT2R16; receptor activated to EC80 with agonist, read-out: inhibition of bitter receptor 16
  inhibition at 25 µM: 20 to 40%
hT2R44; [6]
  inhibition of bitter receptor 44: ++ (40% to 60% inhibition = ++)
hT2R54; [6]
  inhibition of bitter receptor 54: ++ (40% to 60% inhibition = ++)
hT2R55; [6]
  inhibition of bitter receptor 55: ++++ (80% or greater inhibition = ++++)
hT2R61; receptor activated to EC80 with agonist, read-out: inhibition of bitter receptor 61
  inhibition at 25 µM: 40 to 60%
hT2R63; [6]
  inhibition of bitter receptor 63: ++++ (80% or greater inhibition = ++++)
hT2R64; receptor activated to EC80 with agonist, read-out: inhibition of bitter receptor 64
  inhibition at 25 µM: 60 to 80%
hT2R67; [6]
  inhibition of bitter receptor 67: + (20% to 40% inhibition = +)
hT2R71; receptor activated to EC80 with agonist, read-out: inhibition of bitter receptor 71
  inhibition at 25 µM: 20 to 40%

## COc1ccc(CCN(Cc2ccccc2)S(=O)(=O)c2ccc(C(=O)O)cc2)cc1 [Example 5-81, 4-(N-benzyl-N-(4-methoxyphenethyl)sulfamoyl)benzoic acid]
hT2R3
  inhibition at 25 µM: 20 to 40%
hT2R7
  inhibition at 25 µM: 20 to 40%
hT2R10
  inhibition at 25 µM: 20 to 40%
hT2R14; [1]
  inhibition at 25 µM: > 80%
hT2R16; [2]
  inhibition at 25 µM: 20 to 40%
hT2R44
  screening result against bitter receptor 44: ++ (40% to 60% inhibition = ++)
hT2R51
  inhibition at 25 µM: 20 to 40%
hT2R55
  screening result against bitter receptor 55: +++ (60% to 80% inhibition = +++)
hT2R61; [3]
  inhibition at 25 µM: 60 to 80%
hT2R63
  screening result against bitter receptor 63: +++ (60% to 80% inhibition = +++)
hT2R64; [4]
  inhibition at 25 µM: 40 to 60%
hT2R65
  screening result against bitter receptor 65: + (20% to 40% inhibition = +)
hT2R67
  screening result against bitter receptor 67: + (20% to 40% inhibition = +)
hT2R71; [5]
  inhibition at 25 µM: 20 to 40%
